Data published in the CheMixHub ionic liquid set.

Assay: xn = mol fraction of the nth substance listed

CCCC[n+]1ccn(C)c1.F[P-](F)(F)(F)(F)F + Cc1ccccc1
101 kPa
Details	viscosity [mPa·s]
298.15 K, x2 = 0.05	172.6
300.65 K, x2 = 0.2	74.9
300.65 K, x2 = 0.4	31.2
303.15 K, x2 = 0.1	73.3
303.15 K, x2 = 0.3	39.5
305.65 K, x2 = 0.3	32.5
308.15 K, x2 = 0.3	27.6
310.65 K, x2 = 0.1	39.8
313.15 K, x2 = 0.4	14.12
318.15 K, x2 = 0.3	17.56
320.65 K, x2 = 0.3	16.21
320.65 K, x2 = 0.4	11.32
328.15 K, x2 = 0.05	27.7
330.65 K, x2 = 0.05	26
335.65 K, x2 = 0.4	8.8
338.15 K, x2 = 0.05	22.02

CCOC(C)=O + CC[n+]1ccn(C)c1.O=S(=O)([N-]S(=O)(=O)C(F)(F)F)C(F)(F)F
Details	viscosity [mPa·s]
303.15 K, 100 kPa, x1 = 1	0.39

CC(CC(C)(C)C)CP(=O)([O-])CC(C)CC(C)(C)C.CCCCCCCCCCCCCC[P+](CCCCCC)(CCCCCC)CCCCCC + CCCCCCCCCCCC
101 kPa
Details	viscosity [mPa·s]
298.15 K, x1 = 0.4684	82
303.15 K, x1 = 1	757
308.15 K, x1 = 0.4684	56.3
318.15 K, x1 = 0.6647	103
338.15 K, x1 = 0.6647	50.4
343.15 K, x1 = 0.6647	43.4
343.15 K, x1 = 1	111

CC[n+]1ccn(C)c1.O=S(=O)([O-])O + O=C1O[C@H]([C@@H](O)CO)C(O)=C1O + O
viscosity [mPa·s], 100 kPa
Details	293.15 K	298.15 K	303.15 K	308.15 K	313.15 K	318.15 K
x2 = 0, x1 = 0.0009002	1.05	0.94	0.84	0.76	0.69	0.65
x2 = 0, x1 = 0.001799	1.07	0.95	0.85	0.77	0.7	0.64
x2 = 0, x1 = 0.002696	1.08	0.96	0.86	0.78	0.71	0.64
x2 = 0.0002713, x1 = 0.0008999	1.05	0.95	0.84	0.76	0.7	0.65
x2 = 0.0002768, x1 = 0.001798	1.08	0.96	0.86	0.78	0.71	0.65
x2 = 0.000277, x1 = 0.002695	1.09	0.97	0.87	0.78	0.72	0.65
x2 = 0.0005469, x1 = 0.0008997	1.06	0.96	0.85	0.77	0.71	0.66
x2 = 0.0005489, x1 = 0.001798	1.08	0.96	0.87	0.78	0.72	0.66
x2 = 0.0005544, x1 = 0.002694	1.1	0.98	0.88	0.79	0.72	0.66
x2 = 0.0008183, x1 = 0.0008994	1.07	0.96	0.85	0.78	0.71	0.67
x2 = 0.0008262, x1 = 0.001797	1.09	0.97	0.87	0.79	0.72	0.66
x2 = 0.000834, x1 = 0.002693	1.1	0.98	0.88	0.8	0.73	0.67
x2 = 0.00109, x1 = 0.0008992	1.07	0.97	0.86	0.78	0.72	0.67
x2 = 0.0011, x1 = 0.001797	1.09	0.97	0.88	0.8	0.73	0.67
x2 = 0.00111, x1 = 0.002693	1.11	0.99	0.89	0.8	0.73	0.67
x2 = 0.001362, x1 = 0.000899	1.08	0.97	0.86	0.79	0.72	0.68
x2 = 0.001374, x1 = 0.001796	1.1	0.98	0.88	0.8	0.73	0.67
x2 = 0.00139, x1 = 0.002692	1.11	1	0.89	0.81	0.74	0.68
x2 = 0.001633, x1 = 0.0008987	1.09	0.98	0.87	0.79	0.73	0.68
x2 = 0.001648, x1 = 0.001796	1.11	0.98	0.89	0.81	0.74	0.68
x2 = 0.001666, x1 = 0.002691	1.12	1	0.9	0.81	0.75	0.68
x2 = 0.001906, x1 = 0.0008985	1.09	0.98	0.88	0.8	0.73	0.69
x2 = 0.001923, x1 = 0.001795	1.11	0.99	0.9	0.81	0.74	0.68
x2 = 0.001942, x1 = 0.00269	1.12	1.01	0.9	0.82	0.75	0.69

CC(O)C(=O)[O-].CCOCCn1cc[n+](C)c1 + O
100 kPa
Details	electrical conductivity [S/m]	viscosity [mPa·s]
293.15 K, x1 = 0.8093	0.292	70.03
293.15 K, x1 = 0.8365	0.261	74.7
293.15 K, x1 = 0.9017	0.2	85.7
298.15 K, x1 = 0.8702	0.276	60.47
303.15 K, x1 = 0.938	0.274	52.44
308.15 K, x1 = 0.8093	0.498	31.76
308.15 K, x1 = 0.8365	0.464	33.56
308.15 K, x1 = 0.8702	0.43	35.75
318.15 K, x1 = 0.9017	0.617	22.56

CC#N + C[N+](C)(C)CCC[n+]1ccccc1.N#C[N-]C#N.N#C[N-]C#N
100 kPa, x2 = 0
Details	viscosity [mPa·s]
328.15 K	0.275
333.15 K	0.266

CN(C)C=O + CCCC[P+](C)(CCCC)CCCC.COS(=O)(=O)[O-]
100 kPa, x2 = 0
Details	viscosity [mPa·s]
308.15 K	0.717
323.15 K	0.63

CCCCCCCCCCCCCCCCCC[n+]1ccn(C)c1.O=S(=O)([N-]S(=O)(=O)C(F)(F)F)C(F)(F)F + CCCCCCCCCCCCCCCCn1cc[n+](C)c1.O=S(=O)([N-]S(=O)(=O)C(F)(F)F)C(F)(F)F
Details	viscosity [mPa·s]
323 K, 101 kPa, x2 = 0.621	89.5

Cn1cc[nH+]c1.[Cl-] + [Cl][Al]([Cl])[Cl]
101 kPa
Details	electrical conductivity, 303.15 K [S/m]	electrical conductivity, 313.15 K [S/m]	viscosity, 303.15 K [mPa·s]	viscosity, 313.15 K [mPa·s]
x2 = 0.643	–	0.782	–	31.87
x2 = 0.667	0.709	–	32.79	–

CCCCC[P+](CC)(CC)CC.O=S(=O)([N-]S(=O)(=O)C(F)(F)F)C(F)(F)F + CCCCC[N+](CC)(CC)CC.O=S(=O)([N-]S(=O)(=O)C(F)(F)F)C(F)(F)F
101.3 kPa, x2 = 0
Details	viscosity [mPa·s]
283.15 K	203
323.15 K	30.5

CCCC[n+]1ccn(C)c1.O=S(=O)([N-]S(=O)(=O)C(F)(F)F)C(F)(F)F + CS(C)=O
100 kPa, x2 = 0
Details	viscosity [mPa·s]
303.15 K	40.54
318.15 K	23.75

CCCC[n+]1ccccc1.[Cl-] + CCCC[n+]1ccccc1.[Br-]
101 kPa
Details	viscosity [mPa·s]
398.1 K, x1 = 0.084	33
403.1 K, x1 = 0.084	27.4
408.1 K, x1 = 0.389	23.9
418.1 K, x1 = 0.169	16.9
418.1 K, x1 = 0.389	17.4
418.1 K, x1 = 0.689	18.6
418.1 K, x1 = 0.892	19.4
423.1 K, x1 = 0.084	14.37
423.1 K, x1 = 0.892	16.89
428.1 K, x1 = 0.785	14.42
433.1 K, x1 = 0.292	11.45
433.1 K, x1 = 0.892	13.16
438.1 K, x1 = 0.169	10.08
438.1 K, x1 = 0.469	10.85
438.1 K, x1 = 0.892	11.77

CCCC[P+](C)(CCCC)CCCC.COS(=O)(=O)[O-] + CN1CCCC1=O
101 kPa
Details	viscosity [mPa·s]
293.15 K, x1 = 0.8086	530
298.15 K, x1 = 0.056	7.6
298.15 K, x1 = 0.3764	80
298.15 K, x1 = 0.7129	290
298.15 K, x1 = 0.8086	370
298.15 K, x1 = 1	520
303.15 K, x1 = 0.0914	4.9
303.15 K, x1 = 0.1773	10.8
303.15 K, x1 = 0.2318	15.5
303.15 K, x1 = 0.2971	25
303.15 K, x1 = 0.8086	260
303.15 K, x1 = 0.9022	330
303.15 K, x1 = 0.9468	350
313.15 K, x1 = 0.056	1
313.15 K, x1 = 0.1773	4.5
318.15 K, x1 = 0.2318	7.1
318.15 K, x1 = 0.7129	73
318.15 K, x1 = 0.8086	112
323.15 K, x1 = 0.0914	2.5
323.15 K, x1 = 0.6014	30

CCCC[n+]1ccn(C)c1.F[P-](F)(F)(F)(F)F + OCC(F)(F)F
101 kPa, x2 = 0
Details	viscosity [mPa·s]
278.15 K	1165
283.15 K	774
288.15 K	533
293.15 K	378
298.15 K	274
303.15 K	203
308.15 K	154
313.15 K	119
318.15 K	93.5
323.15 K	74.6
328.15 K	60.4
333.15 K	49.5

CC#N + CC[NH3+].O=[N+]([O-])[O-]
Details	viscosity [mPa·s]
308.19 K, 100 kPa, x2 = 0	0.302

CN1CCCC1=O + CCCCCCCCn1cc[n+](C)c1.[Cl-]
100 kPa, x1 = 1
Details	viscosity [mPa·s]
293.15 K	1.853
318.15 K	1.259

CCCC[n+]1ccn(C)c1.F[P-](F)(F)(F)(F)F + CCCC[n+]1ccn(C)c1.O=S(=O)([N-]S(=O)(=O)C(F)(F)F)C(F)(F)F
Details	viscosity [mPa·s]
313.15 K, 100 kPa, x1 = 0.5	49.8
